Patent US4469689A, “Sulfonate containing ester prodrugs of corticosteroids” (The Upjohn Company, priority 1983, dated 1984)
Where a name gives a salt, the structure may show the parent alone.

Experiments:
mice = settings: M. Kawamura et al., Yakugaku Zasshi, 91, 871 (1971); cited from earlier work
[1] = hydrolysis of dilute aqueous solutions, t90% estimated from hydrolysis rate constants at 25° C. (Table I); type: physicochemical; settings: pH 4.75 (pH of optimum stability), dilute aqueous solution
Description: From the hydrolysis rate constants determined at 25° C. at various pH vlaues for dilute aqueous solutions of the compounds of the invention, estimates of t90% (time for 10% hydrolysis) may be calculated.

[2] = base catalyzed hydrolysis rate in concentrated versus dilute solution; type: physicochemical; settings: 0.267 M vs 5×10^-4 M
Excerpt: The actual shelf-life of formulations of the above compounds would be expected to differ fom the above estimates for two reasons: (1) The solubility of the parent corticosteroid formed on hydrolysis may be exceeded prior to 10% degradation of the ester. Micelle formation by the intact prodrugs of Formula I results in solubilization of free corticosteroid thereby prolonging shelf-life. The degree of solubilization varies with the ester concentration, nature of the pro-moiety, and the structure of the corticosteroid. (2) Micelle formation by the intact prodrug in concentrated solutions results in stabilization of the ester linkage toward base catalyzed hydrolysis. For example, the base catalyzed hydrolysis rate in a 0.267 M solution of the compound of Example 1 is less than one-seventh the rate in a 5×10^-4 M solution.

[3] = background statement; cited from earlier work

C[C@]12CCC(=O)C=C1CC[C@@H]1[C@@H]2[C@@H](O)C[C@@]2(C)[C@H]1CC[C@]2(O)C(=O)COS(=O)(=O)O [21-sulfate of hydrocortisone]
activity in mice (mice): inactive

C[C@H]1C[C@@H]2[C@H]([C@@H](O)C[C@@]3(C)[C@H]2CC[C@]3(O)C(=O)COC(=O)CCCCCS(=O)(=O)O)[C@@]2(C)C=CC(=O)C=C12 [Example 1, 6α-Methylprednisolone, 21-(6-sulfohexanoate), sodium salt]
t90% (time for 10% hydrolysis) [1]: 2.7 years
base catalyzed hydrolysis rate in a 0.267 M solution relative to the rate in a 5×10^-4 M solution [2]: less than one-seventh

C[C@H]1C[C@@H]2[C@H]([C@@H](O)C[C@@]3(C)[C@H]2CC[C@]3(O)C(=O)COC(=O)CCCCCCCCCCS(=O)(=O)O)[C@@]2(C)C=CC(=O)C=C12 [Example 2, 6α-Methylprednisolone, 21-(11-sulfohendecanoate), sodium salt]
t90% (time for 10% hydrolysis) [1]: 3.0 years

C[C@]12C=CC(=O)C=C1CC[C@@H]1[C@@H]2C(=O)C[C@@]2(C)[C@H]1CC[C@]2(O)C(=O)CO [prednisone]
water solubility [3]: generally poorly water soluble
